Source: ChEMBL document CHEMBL2163217, “A straightforward approach for engineering efficacy and selectivity at GPCRs” (J Med Chem, 2012)
The source made the active and inactive calls. The calls are words filed in the database; no cut-off is given here.

Key:
Format in all cases: functional
[1] = target: D(3) dopamine receptor (Homo sapiens) (UniProt P35462); test: Partial agonist activity at D3 receptor
[2] = target: D(2) dopamine receptor (Homo sapiens) (UniProt P14416); test: Partial agonist activity at D2 receptor
Sequence of D(2) dopamine receptor (Homo sapiens) (P14416 whole entry): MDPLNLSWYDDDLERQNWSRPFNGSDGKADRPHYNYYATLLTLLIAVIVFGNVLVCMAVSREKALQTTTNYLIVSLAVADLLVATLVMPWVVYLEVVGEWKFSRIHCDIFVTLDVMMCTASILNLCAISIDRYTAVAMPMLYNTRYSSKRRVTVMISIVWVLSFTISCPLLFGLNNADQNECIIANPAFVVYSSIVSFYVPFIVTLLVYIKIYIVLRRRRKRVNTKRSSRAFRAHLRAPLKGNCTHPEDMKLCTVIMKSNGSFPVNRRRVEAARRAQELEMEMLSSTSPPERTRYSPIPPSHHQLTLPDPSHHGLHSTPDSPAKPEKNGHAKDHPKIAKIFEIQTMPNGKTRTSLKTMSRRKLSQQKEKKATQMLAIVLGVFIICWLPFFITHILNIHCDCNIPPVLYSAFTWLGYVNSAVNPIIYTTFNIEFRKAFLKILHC

[3] = target: D(3) dopamine receptor (Homo sapiens) (UniProt P35462); test: Partial agonist activity at D3 receptor relative to control
[4] = target: D(2) dopamine receptor (Homo sapiens) (UniProt P14416); test: Partial agonist activity at D2 receptor relative to control

Sequence of D(3) dopamine receptor (Homo sapiens) (P35462 whole entry): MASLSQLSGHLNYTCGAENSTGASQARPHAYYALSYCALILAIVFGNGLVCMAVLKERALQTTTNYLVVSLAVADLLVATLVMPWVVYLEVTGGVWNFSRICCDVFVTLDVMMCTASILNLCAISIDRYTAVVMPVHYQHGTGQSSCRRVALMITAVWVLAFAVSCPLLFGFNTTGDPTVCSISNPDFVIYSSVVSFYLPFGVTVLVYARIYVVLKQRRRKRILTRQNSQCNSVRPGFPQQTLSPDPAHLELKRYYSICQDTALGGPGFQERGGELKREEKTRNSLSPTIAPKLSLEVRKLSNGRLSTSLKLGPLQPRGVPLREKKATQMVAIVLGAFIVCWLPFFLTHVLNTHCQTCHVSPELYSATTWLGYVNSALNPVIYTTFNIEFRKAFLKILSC

Compound | Activity [1] | Activity [2] | Emax [3] [%] | Emax [4] [%]
COc1ccccc1N1CCN(CCCCNC(=O)c2cc3ccccc3[nH]2)CC1 | Active | Active | 8 | 8
Clc1cccc(N2CCNCC2)c1Cl | – | – | 57.3 | 40.4
O=C(NCCCCN1CCN(c2cccc(Cl)c2Cl)CC1)c1cc2ccccc2[nH]1 | Active | – | – | –
COc1ccccc1N1CCNCC1 | – | – | – | 14
